In patent US20240415918A1, “Polypeptide and its use as a CCK receptor agonist/antagonist” (Centre for Regenerative Medicine & Health, Hong Kong …, priority 2021, published 2024):
Where a SMILES comes first, the peptide text is derived from it. [ ]: non-standard residue; d: D form. The star is where a group is joined. Phe(3-Br) = N[C@@H](Cc1cccc(Br)c1)C(=O)O; dNMeW = CN[C@H](Cc1c[nH]c2ccccc12)C(=O)O; dGly(nOct) = CCCCCCCC[C@@H](N)C(=O)O; Fmoc = O=C(OCC1c2ccccc2-c2ccccc21)*; Ahp(2) = CCCCC[C@H](N)C(=O)O; Nle = CCCC[C@H](N)C(=O)O

Columns and labels:
[1] = target: T1, CCK-B receptors (CHO-CCK) (Homo sapiens, UniProt P32239); experiment: Calcium flux (Fluo-8) antagonist test on CHO-CCK model cells in presence of CCK8; assay type: cell-based
T1 construct: expressed in transfected cells; host or cells: CHO (CHO-CCK model cells)
T1 sequence (P32239 1-447): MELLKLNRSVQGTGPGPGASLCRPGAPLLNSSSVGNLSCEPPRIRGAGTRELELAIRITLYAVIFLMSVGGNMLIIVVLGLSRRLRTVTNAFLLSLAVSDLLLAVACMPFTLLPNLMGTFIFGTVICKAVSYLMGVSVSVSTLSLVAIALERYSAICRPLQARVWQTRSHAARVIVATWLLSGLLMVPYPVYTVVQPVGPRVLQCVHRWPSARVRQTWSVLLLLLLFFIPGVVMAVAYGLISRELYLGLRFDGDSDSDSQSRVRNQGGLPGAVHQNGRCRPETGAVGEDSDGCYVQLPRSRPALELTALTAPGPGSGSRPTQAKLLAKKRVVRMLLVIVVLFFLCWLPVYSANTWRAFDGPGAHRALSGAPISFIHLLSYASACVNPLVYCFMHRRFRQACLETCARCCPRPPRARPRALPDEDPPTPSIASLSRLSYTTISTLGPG
Procedure: The compound was formulated to a 10 mM mother liquor with DMSO, and then diluted into a series of 9 concentrations with a 3-fold gradient to form a 1000× stock solution. […] Prepare 1×Fluo-8 analysis buffer: mix 9 mL of HHBS, 1 mL of 10× Pluronic F127 Plus and 20 μL of Fluo-8 thoroughly for later use. • 3. Add Fluo-8 dye working solution to the cell plate, 100 μL/well. First incubate in a 37° C. incubator for 30 min, and then take it out and incubate at room temperature in the dark for 30 min. • 4. In the process of incubating cells, the compounds to be detected were prepared with HHBS. • 5. […] The agonism/antagonism EC50 of the compound can be obtained by plotting the fitting curve with the agonism/antagonism percentage as Y-axis and the concentration of the compound as X-axis.

[2] = target: T1, CCK-B receptors (CHO-CCK); experiment: Calcium flux (Fluo-8) agonist test on CHO-CCK model cells; assay type: cell-based; conditions: for EC50: CHO-CCK cells; for Agonistic Activity (%) at 10 μM: compound at 10 μM, percentage of signal of 20 nM CCK8 alone
Summary of the method: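 Agonist-mode Fluo-8 calcium flux read on CHO-CCK cells after dye loading 30 min at 37 °C plus 30 min at room temperature.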

[3] = compound together with 10 nM CCK8
[4] = compound alone, 100% = 20 nM CCK8
[5] = Fluo-8 calcium flux, 100% control = 20 nM CCK8
[6] = in presence of 10 nM CCK8, bound in μM

Structure (SMILES)	EC50 [1, 3] [µM]	EC50 [2, 4] [µM]	Agonistic Activity (%) at 10 μM [2] [%]	EC50 [2, 5] [µM]	also measured
CSCC[C@H](NC(=O)[C@H](N)Cc1c[nH]c2ccccc12)C(=O)N[C@@H](CC(=O)O)C(=O)N[C@@H](Cc1ccc(Br)cc1)C(N)=O [HT-34, D-Trp-Met-Asp-Phe(4-Br)-NH2]	2.25	0.369	98.24		
CSCC[C@H](NC(=O)[C@@H](Cc1c[nH]c2ccccc12)NC(C)=O)C(=O)N[C@@H](Cc1c[nH]cn1)C(=O)N[C@@H](Cc1cccc(Br)c1)C(N)=O [HT-189, Ac-D-Trp-Met-His-Phe(3-Br)-NH2] (Ac-[dW]MH[Phe(3-Br)]-NH2)	5.95	1.99			
CCCC[C@H](NC(=O)[C@@H](Cc1c[nH]c2ccccc12)N(C)C(=O)OCC1c2ccccc2-c2ccccc21)C(=O)N[C@@H](CC(=O)O)C(=O)N[C@@H](Cc1cccc(Br)c1)C(N)=O [HT-249, Fmoc-(N-Me-D-Trp)-Nle-Asp-Phe(3-Br)-NH2] (Fmoc-[dNMeW][Nle]D[Phe(3-Br)]-NH2)				0.00226	EC50 ([1]; in presence of 10 nM CCK8): 4.55 µM
CCCCCCCC[C@@H](NC(C)=O)C(=O)N[C@@H](CCCC)C(=O)N[C@@H](CCC(=O)O)C(=O)N[C@@H](Cc1cccc(Br)c1)C(N)=O [HT-265, Ac-Da-Nle-Glu-Phe(3-Br)-NH2] (Ac-[dGly(nOct)][Nle]E[Phe(3-Br)]-NH2)				13	EC50 [1, 6]: > 10 µM
CSCC[C@H](NC(=O)[C@H](N)Cc1c[nH]c2ccccc12)C(=O)N[C@@H](CC(=O)O)C(=O)N[C@@H](Cc1cccc(Br)c1)C(N)=O [HT-29, D-Trp-Met-Asp-Phe(3-Br)-NH2]	0.106	0.0081	85.68		
CSCC[C@H](NC(=O)[C@H](Cc1c[nH]c2ccccc12)NC(=O)CNC(C)=O)C(=O)N[C@@H](CC(=O)O)C(N)=O [HT-211, Ac-Gly-Trp-Met-Asp-NH2] (Ac-GWMD-NH2)					EC50 [1, 6]: > 10 µM; EC50 ([2]; Fluo-8 calcium flux, bound in μM): > 10 µM
COC(=O)C[C@H](NC(=O)[C@H](CCSC)NC(=O)[C@H](N)Cc1c[nH]c2ccccc12)C(=O)N[C@@H](Cc1ccc(F)cc1)C(N)=O [HT-87, D-Trp-Met-Asp(Ome)-Phe(4-F)-NH2]	9.98		28.73		
CSCC[C@H](NC(=O)[C@H](N)Cc1c[nH]c2ccccc12)C(=O)N[C@@H](CC(=O)O)C(=O)N[C@@H](Cc1cc(F)cc(F)c1)C(N)=O [HT-39, D-Trp-Met-Asp-Phe(3,5-DiF)-NH2]	0.631	0.0442	119.04		
CCCCC[C@H](NC(=O)[C@@H](Cc1c[nH]c2ccccc12)N(C)C(=O)OCC1c2ccccc2-c2ccccc21)C(=O)N[C@@H](CC(=O)O)C(=O)N[C@@H](Cc1cccc(Br)c1)C(N)=O [HT-258, Fmoc-(N-Me-Trp)-Pa-Asp-Phe(3-Br)-NH2] (Fmoc-[dNMeW][Ahp(2)]D[Phe(3-Br)]-NH2)				0.0226	EC50 ([1]; in presence of 10 nM CCK8): 1.04 µM
CSCC[C@H](NC(=O)[C@@H](Cc1c[nH]c2ccccc12)NC(C)=O)C(=O)N[C@@H](CCC(=O)O)C(=O)N[C@@H](Cc1cccc(Br)c1)C(N)=O [HT-186, Ac-D-Trp-Met-Glu-Phe(3-Br)-NH2] (Ac-[dW]ME[Phe(3-Br)]-NH2)	7.71	1.34			
CS(=O)(=O)CC[C@H](NC(=O)[C@H](N)Cc1c[nH]c2ccccc12)C(=O)N[C@@H](CC(=O)O)C(=O)N[C@@H](Cc1ccc(N=[N+]=[N-])cc1)C(N)=O [HT-65, D-Trp-Met(O2)-Asp-Phe(4-N3)-NH2]			8.35		EC50 ([1]; compound together with 10 nM CCK8, bound in μM): > 10 µM
CCCC[C@H](NC(=O)[C@@H](Cc1cn(C)c2ccccc12)NC(C)=O)C(=O)N[C@@H](CC(=O)O)C(=O)N[C@@H](Cc1cn(C)c2ccccc12)C(N)=O [HT-232, Ac-(1-Me-Trp)-Nle-Asp-(1-Me-Trp)-NH2]				0.376	EC50 ([1]; in presence of 10 nM CCK8): 3.28 µM
CCCC[C@H](NC(=O)[C@H](Cc1c[nH]c2ccccc12)N(C)C(=O)CNC(=O)OCC1c2ccccc2-c2ccccc21)C(=O)N[C@@H](CC(=O)O)C(=O)N[C@@H](Cc1cccc(Br)c1)C(N)=O [HT-250, Fmoc-Gly-(N-Me-D-Trp)-Nle-Asp-Phe(3-Br)-NH2]				0.386	EC50 ([1]; in presence of 10 nM CCK8): 2.85 µM
CC(=O)N[C@H](Cc1c[nH]c2ccccc12)C(=O)N[C@@H](CCC(N)=O)C(=O)N[C@@H](CC(=O)O)C(=O)N[C@@H](Cc1cccc(Br)c1)C(N)=O [HT-184, Ac-D-Trp-Glu-Asp-Phe(3-Br)-NH2]	4.41	4.32			
